From patent US20250333371A1, “COMPOUNDS” (PSYLO PTY LTD, priority 2022, published 2025) come the findings set out here.

Where two headings read alike, the source gives them in different places.

Assay type in all cases: cell-based
Test [1] concerns the target T1, 5-HT2B (Homo sapiens, UniProt P41595).
T1 construct: host or cells: CHO-K1
Kind of test: FLIPR Ca2+ flux functional assay, 5-HT2B receptor (stably transfected CHO-K1). As to the method: (§1) Activity at 5-HT2A, 5-HT2B and 5-HT2C receptors was determined using a FLIPR Ca^2+ flux assay at WuXi AppTec Co. Ltd. (Hong Kong) Discovery Biology Unit according to their standard protocols. Briefly, stably transfected cells expressing the receptor of interest (HEK293 for 5-HT2A and 5-HT2C; CHO-K1 for 5-HT2B) were grown and plated in a 384 well plate and incubated at 37° C. and 5% CO2 overnight. A 250 mM stock solution of probenecid in FLIPR calcium assay buffer (10 mL) was freshly prepared and combined with a fluorescent dye (Fluo-4 Direct) to give a final assay concentration of 2.5 mM. Reference compounds were 4-fold serially diluted and the screening compounds were 3-fold serially diluted in 100% DMSO for 10 points using Agilent Bravo, and 750 nL was added to a 384 well compound plate using Echo along with 30 μL assay buffer. The fluorescent dye was then added to the assay plate along with assay buffer to a final volume of 40 μL. The cell plate was incubated for 50 min at 37° C. and 5% CO2 and placed into the FLIPR Tetra along with the compound plate. 10 μL of references and compounds were then transferred from the compound plate into the cell plate and the fluorescent signal was read.

The target in test [2] is T2, 5-HT2C (Homo sapiens, UniProt P28335).
T2 construct: host or cells: HEK293
T2 sequence (P28335 33-458): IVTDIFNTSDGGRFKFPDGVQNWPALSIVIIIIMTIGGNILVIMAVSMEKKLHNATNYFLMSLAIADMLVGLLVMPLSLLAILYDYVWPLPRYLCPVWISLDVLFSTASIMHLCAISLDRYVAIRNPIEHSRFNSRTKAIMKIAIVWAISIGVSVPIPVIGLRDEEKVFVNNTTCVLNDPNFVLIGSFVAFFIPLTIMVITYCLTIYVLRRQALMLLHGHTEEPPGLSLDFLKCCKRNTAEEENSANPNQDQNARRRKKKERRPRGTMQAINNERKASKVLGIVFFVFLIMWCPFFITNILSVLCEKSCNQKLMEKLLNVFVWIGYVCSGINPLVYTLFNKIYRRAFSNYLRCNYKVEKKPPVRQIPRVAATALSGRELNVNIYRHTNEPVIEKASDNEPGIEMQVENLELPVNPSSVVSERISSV
The experiment in a line: FLIPR Ca2+ flux functional assay, 5-HT2C receptor (stably transfected HEK293). As to the method: as §1

For test [3], the target named is T3, 5-HT2A (Homo sapiens, UniProt P28223).
T3 construct: host or cells: HEK293
Kind of test: FLIPR Ca2+ flux functional assay, 5-HT2A receptor (stably transfected HEK293). The protocol: as §1

The mark [4] stands for this setting: agonist activity, Ca2+ flux, CHO-K1.
Setting [5] is: agonist activity, Ca2+ flux, HEK293.
[6] abbreviates: agonist activity, Ca2+ flux, CHO-K1, read-out: 5-HT2B EC50.
The mark [7] stands for this setting: agonist activity, Ca2+ flux, HEK293, read-out: 5-HT2C EC50.
Where [8] appears, read: agonist activity, Ca2+ flux, HEK293, read-out: 5-HT2A EC50.

T3 sequence (P28223 whole entry): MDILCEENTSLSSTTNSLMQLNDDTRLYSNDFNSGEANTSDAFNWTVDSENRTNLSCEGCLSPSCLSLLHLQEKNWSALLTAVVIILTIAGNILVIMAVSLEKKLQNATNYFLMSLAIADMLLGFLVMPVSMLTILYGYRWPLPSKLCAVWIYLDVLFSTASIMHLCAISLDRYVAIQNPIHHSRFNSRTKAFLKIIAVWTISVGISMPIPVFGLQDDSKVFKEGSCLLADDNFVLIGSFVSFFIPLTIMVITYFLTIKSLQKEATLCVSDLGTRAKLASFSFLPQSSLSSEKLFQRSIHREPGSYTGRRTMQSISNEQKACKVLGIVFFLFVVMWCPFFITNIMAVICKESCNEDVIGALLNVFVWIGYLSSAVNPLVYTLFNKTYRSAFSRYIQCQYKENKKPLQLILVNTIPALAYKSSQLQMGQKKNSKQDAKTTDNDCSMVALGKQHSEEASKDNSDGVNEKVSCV
T1 sequence (P41595 whole entry): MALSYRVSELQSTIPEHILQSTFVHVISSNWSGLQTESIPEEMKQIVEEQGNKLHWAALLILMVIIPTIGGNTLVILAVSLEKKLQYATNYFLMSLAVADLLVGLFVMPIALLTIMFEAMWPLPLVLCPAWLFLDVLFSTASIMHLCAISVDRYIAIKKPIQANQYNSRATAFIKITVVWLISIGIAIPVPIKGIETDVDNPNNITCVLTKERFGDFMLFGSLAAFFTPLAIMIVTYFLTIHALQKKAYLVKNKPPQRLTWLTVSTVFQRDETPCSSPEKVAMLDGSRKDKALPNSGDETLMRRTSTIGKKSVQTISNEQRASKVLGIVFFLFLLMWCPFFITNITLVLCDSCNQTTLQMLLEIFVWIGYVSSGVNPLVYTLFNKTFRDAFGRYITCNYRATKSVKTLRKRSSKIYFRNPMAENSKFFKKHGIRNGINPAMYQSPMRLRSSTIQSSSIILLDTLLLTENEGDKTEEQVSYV

Turning to `COc1cccc2cccc(CCN(C)C)c12` [Example I-13, 2-(8-methoxynaphthalen-1-yl)-N,N-dimethylethan-1-amine], the EC50 in test [1] is above 10 µM; in test [2], 0.582 µM; in test [3] it was 0.138 µM. Further, the Emax in test [1] (setting [4]) came to 5%; in test [2] (setting [5]) it was 58%; in test [3] (setting [5]) it was 49%.
With `CCCN(C)CCc1cccc2ccc(OC)cc12` [Example I-6, N-(2-(7-methoxynaphthalen-1-yl)ethyl)-N-methylpropan-1-amine], the EC50 in test [1] is above 10 µM; in test [2], 0.079 µM; in test [3], 0.125 µM. Further, the Emax in test [1] (setting [4]) is 24%; in test [2] (setting [5]), 95%; in test [3] (setting [5]), 81%.
For `COc1cccc2cccc(CCN(C(C)C)C(C)C)c12` [Example I-24, N-isopropyl-N-(2-(8-methoxynaphthalen-1-yl)ethyl)propan-2-amine], the Emax in test [1] (setting [4]) stood at 116%; in test [2] (setting [5]), 90%; in test [3] (setting [5]) it was 98%. Further, the EC50 in test [1] (setting [6]) is 4.7 µM; in test [2] (setting [7]), 2.56 µM; in test [3] (setting [8]), 1.47 µM.
For `CCCN(CCC)CCc1cccc2ccc(OC)cc12` [Example I-3, N-(2-(7-methoxynaphthalen-1-yl)ethyl)-N-propylpropan-1-amine], the Emax in test [1] (setting [4]) is 72%; in test [2] (setting [5]) it was 97%; in test [3] (setting [5]), 77%. Moreover, the EC50 was found to be 0.225 µM in test [1] (setting [6]), 0.944 µM in test [2] (setting [7]) and 0.234 µM in test [3] (setting [8]).
For `CCCN(C)CCc1cccc2cccc(OC)c12` [Example I-27, N-(2-(8-methoxynaphthalen-1-yl)ethyl)-N-methylpropan-1-amine], the values for the EC50 in test [1], in test [2] and in test [3] were above 10 µM, 0.211 µM and 0.213 µM, respectively. Also, the Emax in test [1] (setting [4]) was 2%; in test [2] (setting [5]), 75%; in test [3] (setting [5]), 86%.
For the compound `CCN(C)CCc1cccc2ccc(OC)cc12` [Example I-5, N-ethyl-2-(7-methoxynaphthalen-1-yl)-N-methylethan-1-amine], the EC50 was above 10 µM in test [1], 0.043 µM in test [2] and 0.086 µM in test [3] (setting [8]). Further, the values for the Emax in test [1] (setting [4]), in test [2] (setting [5]) and in test [3] (setting [5]) were 17%, 94% and 63%, respectively.
As to `COc1ccc2cccc(CCN(C(C)C)C(C)C)c2c1` [Example I-4, N-isopropyl-N-(2-(7-methoxynaphthalen-1-yl)ethyl)propan-2-amine], the results for the Emax in test [1] (setting [4]), in test [2] (setting [5]) and in test [3] (setting [5]) were 123%, 99% and 111%, respectively. The EC50 in test [1] (setting [6]) was 1.2 µM; in test [2] (setting [7]), 1.26 µM; in test [3] (setting [8]), 0.446 µM.
